From patent publication US20190093163A1, “COMPOSITIONS AND METHODS FOR MAINTAINING SPLICING FIDELITY” (President and Fellows of Harvard College, priority 2015, published 2019) come the findings set out here.

The subject of the assay is SF1. In words: Immunoblots of SF1 in WT MEFs treated with TORC1 inhibitors. The format is cell-based. As to conditions: mouse embryonic fibroblasts; rapamycin 20 nM, Torin 250 nM. A general note: Immunoblotting shows a protein as a band on a membrane.

Experimental: To control for the SF1 antibody specificity, WT MEF transfected with non-targeting control siRNAs (siCt) or SF1 siRNA for 72 h and grown in 10% FBS, are shown on the right side of the blot. Biological duplicates are shown except for the siRNA treated lanes.
Immunoblotting was performed as in FIG. 14, Panel G. Biological duplicates are shown except for the siRNA treated lanes.
The inverted splicing reporter WBM535 was made by injecting modified minigene reporter plasmids into N2 worms. The plasmids were made by deleting the (+2) frameshift in the EGFP minigene and inserting a (+2) frameshift into the mCherry minigene. Worms were grown and maintained on standard nematode growth media (NGM) seeded with E. coli (OP50-1). E. coli bacteria were cultured overnight in LB at 37° C., after which 100 μl of liquid culture was seeded on plates to grow for 2 days at room temperature. Lifespans—All lifespans were conducted at 20° C. unless otherwise noted in figure legend. Lifespans were performed as described in Burkewitz et al. (93). Graphpad Prism 6 was used to plot survival curves and determine median lifespan. Survival curves were compared and p values calculated using the log-rank (Mantel-Cox) analysis method. […] RNA interference—All RNAi constructs came from the Ahringer RNAi library, except hrp-2 and hrpf-1 RNAi constructs, which originated from the Vidal RNAi library. RNAi experiments were carried out using E. coli HT115 bacteria on standard NGM plates containing 100 μg/ml Carbenicillin. […] NGM plus Carbenicillin plates were seeded 48 hours before use. Respective dsRNA expressing HT115 bacteria were induced by adding 100 μl IPTG (100 mM) one hour before introducing worms to the plate. RNAi was induced for all experiments from egg hatch. Solid plate-based dietary restriction assays—Solid sDR assays were performed as described by Ching et al. (79). Plates were prepared in advance and stored at 4° C.

Consider `CO[C@H]1C[C@@H]2CC[C@@H](C)[C@@](O)(O2)C(=O)C(=O)N2CCCC[C@H]2C(=O)O[C@H]([C@H](C)C[C@@H]2CC[C@@H](O)[C@H](OC)C2)CC(=O)[C@H](C)/C=C(\C)[C@@H](O)[C@@H](OC)C(=O)[C@H](C)C[C@H](C)/C=C/C=C/C=C/1C` [rapamycin], for which the “total SF1 levels” value is given as “no effect”. In the case of `CCC(=O)N1CCN(c2ccc(-n3c(=O)ccc4cnc5ccc(-c6cnc7ccccc7c6)cc5c43)cc2C(F)(F)F)CC1` [torin, Torin1], the “SF1 gel shifts indicative of altered phosphorylation” value is “nor did were SF1 gel shifts indicative of altered phosphorylation seen” and the “total SF1 levels” value was “no effect”.
